Results published in ChEMBL document CHEMBL5356930, “Small-molecule inhibitors of bacterial-producing metallo-β-lactamases: insights into their resistance mechanisms and biochemical analyses of their activities” (RSC Med Chem, 2023).
Values after ≈ are worked out from the molar mass of the structure shown. One block for each compound: values may come before it.

Key:
[1] = biological target: T1, Metallo-beta-lactamase type 2 (Bacteria, UniProt C7C422); experiment: Inhibition of bacterial NDM-1 (unknown origin)
T1 sequence (C7C422 whole entry): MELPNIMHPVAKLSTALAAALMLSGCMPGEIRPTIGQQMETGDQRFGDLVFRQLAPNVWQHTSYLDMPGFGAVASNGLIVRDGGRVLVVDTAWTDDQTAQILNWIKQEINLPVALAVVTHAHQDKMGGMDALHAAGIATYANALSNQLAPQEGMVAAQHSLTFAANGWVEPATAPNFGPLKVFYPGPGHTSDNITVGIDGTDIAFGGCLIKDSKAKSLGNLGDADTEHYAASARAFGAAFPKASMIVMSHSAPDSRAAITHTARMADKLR

Escherichia coli [2] = experiment: Synergistic activity against NDM-1-producing engineered Escherichia coli assessed as fractional inhibition concentration index in presence of meropenem; format: functional
L929 [3] = experiment: Cytotoxicity against mouse L929 cells at 40 ug/ml relative to control; format: toxicity, cell-based; settings: at 40 µg/mL
Vero C1008 = experiment: Cytotoxicity against African green monkey Vero E6 cells at 40 ug/ml relative to control; format: toxicity, cell-based; settings: chlorocebus sabaeus, at 40 µg/mL
Escherichia coli [4] = experiment: Synergistic activity against multiple NDM-1-producing engineered Escherichia coli clinical isolate assessed as fractional inhibition concentration index in presence of meropenem; format: functional
Escherichia coli [5] = experiment: Antibacterial activity against NDM-1-producing Escherichia coli in presence of meropenem; format: functional
[6] = Binding affinity to bacterial Metallo-beta-lactamase VIM-2 (unknown origin) assessed as inhibition constant; design: species or system Bacteria
Beta-lactamase VIM-1 = Beta-lactamase VIM-1 (Bacteria, UniProt Q8GDC1); experiment: Inhibition of bacterial Metallo-beta-lactamase VIM-1 (unknown origin)
[7] = Inhibition of bacterial Metallo-beta-lactamase VIM-2 (unknown origin); design: species or system Bacteria
[8] = Inhibition of bacterial Metallo-beta-lactamase VIM-4 (unknown origin); design: species or system Bacteria
Bacteria = experiment: Inhibition of bacterial Metallo-beta-lactamase VIM-5 (unknown origin) at 100 uM relative to control
[9] = biological target: Beta-lactamase VIM-1 (Bacteria) (UniProt Q8GDC1); experiment: Inhibition of bacterial Metallo-beta-lactamase VIM-1 (unknown origin) at 100 uM relative to control
L929 [10] = experiment: Cytotoxicity against mouse L929 cells at 50 uM incubated for 48 hrs by CCK8 assay relative to control; format: toxicity, cell-based; settings: l929, 48 h
[11] = biological target: T1, Metallo-beta-lactamase type 2; experiment: Inhibition of bacterial NDM-1 (unknown origin) using imipenem as substrate by Agilent UV8453 Spectrometric analysis
Klebsiella pneumoniae [12] = experiment: Synergistic activity against NDM-1/VIM-1-producing Klebsiella pneumoniae MS5674 assessed as fractional inhibition concentration index in presence of meropenem by checkerboard assay; format: functional
[13] = Binding affinity to bacterial Metallo-beta-lactamase IMP-1 (unknown origin) expressed in Escherichia coli BL21(DE3) cells assessed as inhibition constant; design: species or system Bacteria
[14] = Acute toxicity in ip dosed CD1 mouse assessed as lethal dose measured for 7 days; format: organism-based; settings: in vivo, time 7 day
HeLa = experiment: Cytotoxicity against human HeLa cells at >1000 uM incubated for 24 hrs by Celltiter assay relative to control; format: toxicity, cell-based
Escherichia coli [15] = experiment: Synergistic activity against IMP-1 producing Escherichia coli NUBL-24 infected in CD1 mouse assessed as death rescue at 100 mg/kg, ip measured for 7 days in presence of meropenem relative to control; format: functional; settings: time 7 day
[16] = Binding affinity to bacterial Metallo-beta-lactamase VIM-2 (unknown origin) expressed in Escherichia coli BL21(DE3) cells assessed as inhibition constant; design: species or system Bacteria
[17] = biological target: Angiotensin-converting enzyme (Homo sapiens, UniProt P12821); experiment: Inhibition of angiotensin-converting enzyme (unknown origin)
Angiotensin-converting enzyme, sequence (P12821 whole entry): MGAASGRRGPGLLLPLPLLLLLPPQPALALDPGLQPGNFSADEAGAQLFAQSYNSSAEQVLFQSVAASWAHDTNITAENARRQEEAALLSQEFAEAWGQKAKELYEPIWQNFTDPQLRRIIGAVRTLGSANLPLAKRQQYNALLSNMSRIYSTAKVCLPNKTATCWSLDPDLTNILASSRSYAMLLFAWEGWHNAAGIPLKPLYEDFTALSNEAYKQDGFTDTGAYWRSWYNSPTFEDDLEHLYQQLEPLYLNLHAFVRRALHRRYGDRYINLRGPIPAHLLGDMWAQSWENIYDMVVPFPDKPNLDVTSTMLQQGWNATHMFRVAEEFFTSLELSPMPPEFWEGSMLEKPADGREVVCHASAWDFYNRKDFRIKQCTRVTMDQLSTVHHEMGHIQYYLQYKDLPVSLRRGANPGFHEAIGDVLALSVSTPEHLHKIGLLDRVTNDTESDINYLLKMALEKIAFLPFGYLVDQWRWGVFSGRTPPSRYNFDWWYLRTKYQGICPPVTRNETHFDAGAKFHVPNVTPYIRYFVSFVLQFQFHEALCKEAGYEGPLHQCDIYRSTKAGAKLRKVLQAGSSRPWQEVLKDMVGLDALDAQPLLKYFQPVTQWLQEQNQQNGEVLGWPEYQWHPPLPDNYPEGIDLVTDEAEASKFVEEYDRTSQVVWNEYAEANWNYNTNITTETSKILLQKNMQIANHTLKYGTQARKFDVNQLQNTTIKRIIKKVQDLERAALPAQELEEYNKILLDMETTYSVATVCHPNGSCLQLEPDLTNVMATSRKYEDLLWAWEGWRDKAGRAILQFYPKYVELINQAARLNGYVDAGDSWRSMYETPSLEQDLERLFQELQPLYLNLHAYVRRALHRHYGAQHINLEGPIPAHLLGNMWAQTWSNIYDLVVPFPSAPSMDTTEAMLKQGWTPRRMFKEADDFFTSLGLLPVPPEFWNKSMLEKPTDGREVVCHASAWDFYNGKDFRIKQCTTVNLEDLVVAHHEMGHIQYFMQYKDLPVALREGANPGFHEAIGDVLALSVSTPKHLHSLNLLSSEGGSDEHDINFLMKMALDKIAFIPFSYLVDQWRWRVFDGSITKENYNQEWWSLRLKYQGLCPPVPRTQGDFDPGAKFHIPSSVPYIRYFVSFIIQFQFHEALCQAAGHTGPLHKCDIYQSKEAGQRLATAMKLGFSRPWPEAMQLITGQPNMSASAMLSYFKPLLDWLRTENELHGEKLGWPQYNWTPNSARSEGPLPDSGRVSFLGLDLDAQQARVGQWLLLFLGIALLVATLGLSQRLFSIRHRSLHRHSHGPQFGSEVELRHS

[18] = Acute toxicity in iv dosed CD1 mouse assessed as lethal dose measured for 7 days; format: organism-based; settings: in vivo, time 7 day
Escherichia coli [19] = experiment: Synergistic activity against IMP-1 producing engineered Escherichia coli NUBL-24 assessed as fractional inhibition concentration index incubated for 16 to 20 hrs in presence of meropenem by CLSI-based microdilution method; format: functional; settings: time 16-20 hrs
Escherichia coli [20] = experiment: Synergistic activity against VIM-2-producing Escherichia coli assessed as fractional inhibition concentration index in presence of ceftazidime by checkerboard assay; format: functional
[21] = Inhibition of bacterial Metallo-beta-lactamase GIM-1 using nitrocefin as substrate; design: species or system Bacteria
[22] = biological target: T1, Metallo-beta-lactamase type 2; experiment: Binding affinity to bacterial NDM-1 (unknown origin) assessed as inhibition constant
[23] = Cytotoxicity against human HeLa cells; format: toxicity, cell-based
[24] = biological target: T1, Metallo-beta-lactamase type 2; experiment: Inhibition of bacterial NDM-1 (unknown origin) using imipenem as substrate
MCF7 = experiment: Cytotoxicity against human MCF7 cells at 12.5 uM relative to control; format: toxicity, cell-based; settings: mcf7, 12.5 µM
Klebsiella pneumoniae [25] = experiment: Antibacterial activity against NDM-1-producing Klebsiella pneumoniae clinical isolate assessed as fold reduction in MIC in presence of meropenem CLSI-based broth microdilution method; format: functional
Escherichia coli [26] = experiment: Antibacterial activity against NDM-1-producing Escherichia coli assessed as fold reduction in MIC in presence of meropenem CLSI-based broth microdilution method; format: functional
Escherichia coli [27] = experiment: Antibacterial activity against IMP-type producing Escherichia coli clinical isolate in presence of meropenem by CLSI-based broth microdilution method; format: functional
[28] = Inhibition of His-tagged recombinant bacterial Metallo-beta-lactamase IMP-1 (unknown origin) expressed in Escherichia coli BL21 star cells; design: species or system Bacteria
[29] = biological target: Metallo-beta-lactamase VIM-2 (Pseudomonas aeruginosa, UniProt D1MEN9); experiment: Inhibition of N-terminal His-tagged recombinant Pseudomonas aeruginosa Metallo-beta-lactamase VIM-2 expressed in Escherichia coli BL21 star cells using nitrocefin as substrate by absorbance based assay
Klebsiella pneumoniae [30] = experiment: Antibacterial activity against VIM-1-producing Klebsiella pneumoniae NCTC 13440 clinical isolate by CLSI-based broth microdilution method; format: functional
[31] = Cytotoxicity against human HepG2 cells incubated for 24 hrs by CellTiter-Glo assay; format: toxicity, cell-based
Escherichia coli [32] = experiment: Antibacterial activity against IMP-type producing Escherichia coli clinical isolate in presence of imipenem by CLSI-based broth microdilution method; format: functional

IC50 [1]: 0.096 µM
Compound: CO[C@H]1C(=O)N2C(C(=O)O)=C(CSc3nc4ccccc4s3)CS[C@H]12
fractional inhibitory concentration index (FICI) (Escherichia coli [2]): 0.02
Activity (L929 [3]): > 60%
Activity (Vero C1008): > 60%
fractional inhibitory concentration index (FICI) (Escherichia coli [4]): 0.031

Ki [6]: 0.038 µM
IC50 (Beta-lactamase VIM-1): 1.61 µM
IC50 [7]: 0.08 µM
IC50 [8]: 2.1 µM
Compound: O=C(O)c1ccccc1CCn1c(-c2cccc(-c3ccccc3)c2)n[nH]c1=S

IC50 [7]: 38.4 µM
inhibition (Bacteria): 33%
inhibition [9]: 23%
Compound: Brc1ccc(-c2nnc3n2CCCS3)cc1

MIC (Escherichia coli [27]): 0.03 mg/L
IC50 [28]: 0.43 µM
IC50 [29]: 32.4 µM
MIC50 (Klebsiella pneumoniae [30]): 0.06 mg/L (≈ 0.213 µM)
MIC (Escherichia coli [32]): 0.25 mg/L
Compound: Nc1ccc(-c2ccn(S(N)(=O)=O)c2C(=O)O)cn1
fold change (FC) (Klebsiella pneumoniae [25]): 32
fold change (FC) (Escherichia coli [26]): 32
CC50 at 24 h [31]: > 256 mg/L

Further lines, the compound ahead of its results:

Compound: CC(C)c1cc2c(c(O)c1O)[C@@]1(C(=O)O)CCCC(C)(C)[C@@H]1CC2 [CARNOSIC ACID]
MIC (Escherichia coli [5]): 4 mg/L

Compound: S=C(N/N=C/c1ccccn1)Nc1ccc(Cl)cc1
Activity (L929 [10]): > 60%
IC50 [11]: 0.038 µM

Compound: Cc1oc(C)c(S(N)(=O)=O)c1C(=O)O
fractional inhibitory concentration index (FICI) (Klebsiella pneumoniae [12]): 0.19
Ki [13]: 0.22 µM
LD50 at 168 h [14]: > 1000 mg/kg
Activity (HeLa): > 50%
Activity (Escherichia coli [15]): 90%
Ki [16]: 2.81 µM
IC50 [17]: > 1000 µM
LD50 at 168 h [18]: 246 mg/kg
fractional inhibitory concentration index (FICI) (Escherichia coli [19]): 0.11
fractional inhibitory concentration index (FICI) (Escherichia coli [20]): 0.31

Compound: COP(=O)(CCSC(C)=O)NCc1ccccn1 (configuration not stated)
IC50 [7]: 2.2 µM
IC50 [21]: 86 µM

Compound: CN1CCN(C(=S)N/N=C/c2ccccc2O)CC1
IC50 [1]: 0.302 µM
Ki [22]: 440 µM
IC50 [23]: > 64 mg/L

Compound: O=S(=O)(Nc1cccc2cccnc12)c1ccc(Cl)cc1
IC50 [24]: 0.02 µM
Ki ([22]; read-out: Ki): 5.9 µM
Activity (MCF7): < 60%

Compound: CCc1c(C(=O)O)c(S(N)(=O)=O)c(CC)n1C
fractional inhibitory concentration index (FICI) (Klebsiella pneumoniae [12]): 0.05
Ki [13]: 0.26 µM
Activity (HeLa): > 50%
Activity (Escherichia coli [15]): 100%
Ki [16]: 0.02 µM
fractional inhibitory concentration index (FICI) (Escherichia coli [19]): 0.26
